Assay results reported in PMC9654546, “Identification of an IGF2BP2-Targeted Peptide for Near-Infrared Imaging of Esophageal Squamous Cell Carcinoma” (Molecules, 2022).
Ends that are not written are not given here. Cy5 = Cy5 fluorescent dye

Tests used:
KYSE-30 cells [1] = experiment: Flow cytometry of cells incubated with Cy5 conjugated peptides; assay type: cell-based, human; conditions: Cy5 conjugated peptide 50 μM, 15 min, room temperature, 10,000 gated cells
Procedure: When the cells in the 6 cm dish were 80–90% grown, they were harvested with Accutase (Sigma-Aldrich, MO, USA) and incubated with Cy5 conjugated peptides at a concentration of 50 μM for 15 min at room temperature, protected from light. After incubation, the cells were washed 3 times with ice-cold PBS and resuspended in 200 µL of PBS. Flow cytometry was performed on a CytoFLEX LX flow cytometer (Beckman Coulter, IN, USA) and eventually, 10,000 gated cells were collected for analysis. The results were finally analyzed by flow cytometry using Flow Jo software (v7.6, BD Biosciences, OR, USA).

KYSE-30 cells [2] = experiment: Immunofluorescence staining (confocal) of cells with Cy5 conjugated peptides; assay type: cell-based, human; conditions: IGF2BP2-positive KYSE-30 cells, fixed and permeabilised, Cy5 conjugated peptide 80 μM overnight at 4 °C
Procedure: Approximately 5 × 10^4 cells were seeded onto fibronectin-coated coverslips in 24-well plates and fixed with 4% paraformaldehyde until the cells reached about 50% confluence. After permeabilization with 0.5% Triton X-100 (Millipore, MA, USA) for 10 min, the cells were blocked with 5% BSA for 0.5 h and subsequently incubated with Cy5 conjugated peptides at a concentration of 80 μM overnight at 4 °C. The next day, 1 μg/mL of diaminophenyl indole (DAPI) was added to stain the nucleus after washing with phosphate-buffered saline (PBS). Thereafter, the coverslips were mounted with ProLong Gold anti-fade (Invitrogen P26930, CA, USA), and the visualizations were conducted using confocal laser-scanning microscopy (Zeiss LSM880, Oberkochen, Germany).

KYSE-30 xenografts = experiment: Near-infrared fluorescence imaging and ex vivo biodistribution in KYSE-30 bearing xenograft models; parameters: species or system mice
Procedure: Human esophageal cancer cell lines EC-9706, EC-109, and TE-1 were acquired from the Institute of Basic Medical Science, Chinese Academy of Medical Sciences, whereas KYSE-30, KYSE-410, KYSE-450, and KYSE-520 were obtained from the DSMZ (Deutsche Sammlung von Mikroorganismen und Zellkulturen). All cells were maintained in an incubator containing a humid atmosphere of 5% CO2 at 37 °C. All cells were cultured in RPMI-1640 medium supplemented with 10% fetal bovine serum (FBS) and penicillin-streptomycin solution. Mice aged 4 weeks were purchased from Guangdong Medical Laboratory Animal Center (Guangdong, China). Subcutaneous tumor models were constructed by subcutaneously injection of about 1 × 10^7 cells with a 20% suspension of Matrigel (Corning, NY, USA). All animal experiments were performed under a protocol approved by the Animal Ethics Committee of The Fifth Affiliated Hospital of Sun Yat-sen University.
Mice bearing subcutaneous esophageal tumors were injected with an equivalent of 50 μg Cy5-peptide via a tail vein. After circulation, the mice were anesthetized with isoflurane, and fluorescence images were captured at different time points of 10 min, 1 h, 2 h, 4 h, and 6 h by an IVIS Spectrum (PerkinElmer, MA, USA) with an excitation wavelength of 640 nm and an emission wavelength of 670 nm. The region of interest (ROI) was manually sketched to calculate the intensity of the fluorescence as mean fluorescence intensity (MFI). In addition, the tumors and main organs (bladder, liver, heart, lungs, stomach, spleen, skin, kidneys, colon, muscles, bones, and blood) were dissected and imaged for biodistribution analysis.

[3] = molecular target: recombinant IGF2BP2 protein (approximately 29 kDa) (human); experiment: ELISA; phage ELISA; purified IGF2BP2 protein coated on a 96-well plate, phage clones after the third round of screening, OD at 450 nm
[4] = KYSE-30 xenograft mice, 50 μg Cy5-peptide via tail vein, ROI quantification, n = 3
[5] = ex vivo optical imaging of tumors and main organs 2 h postinjection, 50 μg i.v., n = 3

| Molecule | Peak shift in flow cytometric analysis (KYSE-30 cells [1]) | Binding / fluorescence in confocal immunocytochemistry (KYSE-30 cells [2]) | Binding to IGF2BP2-positive tumors (immunofluorescence of frozen tumor sections after imaging) (KYSE-30 xenografts; KYSE-30 tumor tissue resected after imaging) | TBRs over time (KYSE-30 xenografts; [4]) | Time at which mean fluorescence intensity (MFI) peaked (KYSE-30 xenografts; [4]) [h] | Tumor accumulation in NIRF imaging in comparison to C12-Cy5 (KYSE-30 xenografts; KYSE-30 xenograft mice, 50 μg Cy5-peptide via tail vein, different time points postinjection, n = 3) | Uptake in kidney relative to other organs (KYSE-30 xenografts; biodistribution, KYSE-30 xenograft mice) | Clearance route from biodistribution (KYSE-30 xenografts; [5]) | Enrichment in KYSE-30 tumors relative to organs (biodistribution) (KYSE-30 xenografts; [5]) | OD value (450 nm) relative to the control (times that of the control) [3] |
| --- | --- | --- | --- | --- | --- | --- | --- | --- | --- | --- |
| P12-Cy5: P12 peptide conjugated to arginine-penetrating peptide (RRRRRRRR) at the C-terminus and Cy5 fluorescent group at the N-terminus (Cy5-LSMPWSPTTYASRRRRRRRR; also: linker between P12 and R8 not defined) | peak shift | strong binding in the cytoplasm | strong binding | gradually increasing over time | 2 | significantly higher tumor accumulation | relatively higher in the kidney than in other organs, including the tumors | prominent renal clearance | high in all organs except the urinary organs | – |
| LSMPWSPTTYAS [P12 peptide (…) displayed on phage] | – | – | – | – | – | – | – | – | – | 10 |
